From paper PMC11091072, “Targeting bacterial nickel transport with aspergillomarasmine A suppresses virulence-associated Ni-dependent enzymes” (Nature Communications, 2024)
Where “and” joins values, the source holds several entries; their conditions need not be identical. Identical values can stand only once. Like-named read-outs stand apart in the source and are kept apart here.

Legend:
S. aureus = type: cell-based, Staphylococcus aureus; conditions: 200 μM, 24 h
[1] = test system: S. aureus urease activity (whole cell); type: cell-based, Staphylococcus aureus; conditions: S. aureus, artificial urine, 24 h
NikA [2] = target: NikA (Klebsiella pneumoniae, UniProt A6TFA3); type: binding
Chain of NikA (Klebsiella pneumoniae, UniProt A6TFA3) (A6TFA3 entry or part of it): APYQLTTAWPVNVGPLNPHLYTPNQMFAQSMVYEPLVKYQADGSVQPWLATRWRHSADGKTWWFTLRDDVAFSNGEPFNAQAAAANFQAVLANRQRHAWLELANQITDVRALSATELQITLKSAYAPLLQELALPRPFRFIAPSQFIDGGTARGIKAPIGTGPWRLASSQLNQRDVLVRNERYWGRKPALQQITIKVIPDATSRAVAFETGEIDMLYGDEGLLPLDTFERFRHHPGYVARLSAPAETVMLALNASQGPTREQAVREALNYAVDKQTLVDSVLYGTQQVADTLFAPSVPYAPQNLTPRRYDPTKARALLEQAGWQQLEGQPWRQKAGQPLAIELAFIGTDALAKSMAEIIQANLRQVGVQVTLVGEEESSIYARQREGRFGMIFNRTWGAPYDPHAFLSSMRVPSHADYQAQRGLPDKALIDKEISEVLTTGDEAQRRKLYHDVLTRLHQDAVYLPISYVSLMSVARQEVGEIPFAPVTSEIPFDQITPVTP

HEK293 cells = experiment: HEK293 cytotoxicity assay (Cell Titer Glo 2.0)
NikA [3] = type: binding, Klebsiella pneumoniae; conditions: 100 μM
K. pneumoniae [4] = type: cell-based, Klebsiella pneumoniae; conditions: 200 μM, 24 h exposure
[5] = test system: K. pneumoniae urease activity (Ni2+ uptake); experiment: Competition of Zn-AMA with Ni-(L-His)2 (urease-dependent pH); type: cell-based, Klebsiella pneumoniae; conditions: Zn-AMA 0 μM
K. pneumoniae [6] = type: cell-based, Klebsiella pneumoniae; conditions: Chelex-treated nitrogen-limited medium
[7] = pH 7.5, 2:1 complex, cited from earlier work
[8] = test system: K. pneumoniae urease activity (whole cell); experiment: microbe, parasite or virus in culture; type: cell-based, Klebsiella pneumoniae ATCC 33495; conditions: artificial urine, 24 h; for K. pneumoniae urease-dependent pH change (pH): 37 °C

N[C@@H](CN[C@@H](CN[C@@H](CC(=O)O)C(=O)O)C(=O)O)C(=O)O.[Co+2] [Co-AMA]
bacterial viability (spot dilutions) (S. aureus): not lethal to bacteria | effect on urease activity [1]: inhibited urease activity similarly | n (stoichiometry, ITC) (NikA [2]; 37 °C, pH 7.5): 1.06 | ∆G (NikA [2]; 37 °C, pH 7.5): -6.9 kcal/mol | ∆H (NikA [2]; 37 °C, pH 7.5): -10.5 kcal/mol | −T∆S (NikA [2]; 37 °C, pH 7.5): 3.6 kcal/mol | Kd (NikA [2]; read-out: KD for NikA (ITC), 25 mM Tris-HCl, 150 mM NaCl, 0.1% Triton X-100, pH 7.5, 37 °C): 13 ± 0.4 µM | HEK 293T cytotoxicity assay raw signal (HEK293 cells; Co-AMA 0.5 μg/mL): 622984 and 609603 and 578025 | HEK 293T cytotoxicity assay raw signal (HEK293 cells; Co-AMA 1 μg/mL): 648007 and 588509 and 584554 | HEK 293T cytotoxicity assay raw signal (HEK293 cells; Co-AMA 2 μg/mL): 653814 and 579149 and 584837 | HEK 293T cytotoxicity assay raw signal (HEK293 cells; Co-AMA 4 μg/mL): 624260 and 594763 and 611086 | HEK 293T cytotoxicity assay raw signal (HEK293 cells; Co-AMA 8 μg/mL): 684397 and 665902 and 598886 | HEK 293T cytotoxicity assay raw signal (HEK293 cells; Co-AMA 16 μg/mL): 641409 and 612229 and 581248 | HEK 293T cytotoxicity assay raw signal (HEK293 cells; Co-AMA 32 μg/mL): 567905 and 544667 and 548517 | HEK 293T cytotoxicity assay raw signal (HEK293 cells; Co-AMA 64 μg/mL): 578062 and 599992 and 521662 | HEK 293T cytotoxicity assay raw signal (HEK293 cells; Co-AMA 128 μg/mL): 421336 and 474275 and 462640 | HEK 293T cytotoxicity assay raw signal (HEK293 cells; Co-AMA 256 μg/mL): 411884 and 395016 and 434679 | HEK 293T cytotoxicity assay raw signal (HEK293 cells; Co-AMA 512 μg/mL): 266726 and 265058 and 263860 | reduction in HEK293 cell viability (HEK293 cells; highest test concentration 512 μg/mL, 48 h): 50% | effect on stability of recombinant NikA (NikA [3]): increase NikA’s stability | bacterial viability (spot dilutions) (K. pneumoniae [4]): do not affect bacterial viability

N[C@@H](Cc1c[nH]cn1)C(=O)O [L-His, L-histidine, reference compound]
pH of culture (Zn-AMA v.s. L-His) ([5]; L-His 3.12 μM): 8.06 and 8.1 | pH of culture (Zn-AMA v.s. L-His) ([5]; L-His 6.25 μM): 8.07 and 8.1 | pH of culture (Zn-AMA v.s. L-His) ([5]; L-His 12.5 μM): 7.85 and 7.9 | growth with urea as sole nitrogen source (K. pneumoniae [6]): not viable | Kd ([7]; read-out: KD1 for Ni^2+): 0.64 µM | Kd ([7]; read-out: KD2 for Ni^2+): 8.8 µM

[Cl-].[Cl-].[Zn+2] [ZnCl2, reference compound]
effect on urease activity [1]: did not affect urease activity | K. pneumoniae urease-dependent pH change (pH) ([8]; 0.39 μM): 8.18 and 8.29 | K. pneumoniae urease-dependent pH change (pH) ([8]; 0.78 μM): 8.27 and 8.39 | K. pneumoniae urease-dependent pH change (pH) ([8]; 1.56 μM): 8.17 and 8.34 | K. pneumoniae urease-dependent pH change (pH) ([8]; 3.12 μM): 8.20 and 8.42 | K. pneumoniae urease-dependent pH change (pH) ([8]; 6.25 μM): 8.19 and 8.30 | K. pneumoniae urease-dependent pH change (pH) ([8]; 12.5 μM): 8.23 and 8.21 | K. pneumoniae urease-dependent pH change (pH) ([8]; 25 μM): 8.25 and 8.11 | K. pneumoniae urease-dependent pH change (pH) ([8]; 50 μM): 8.14 and 8.06 | K. pneumoniae urease-dependent pH change (pH) ([8]; 100 μM): 8.06 and 8.01 | K. pneumoniae urease-dependent pH change (pH) ([8]; 200 μM): 7.51 and 7.49 | effect on urease activity ([8]; K. pneumoniae): did not affect urease activity | effect on stability of recombinant NikA (NikA [3]): stabilized NikA
